Assay results: patent US20200016207A1, “[…] c-MPL PROVIDES LIGAND-DEPENDENT CO-STIMULATION AND CYTOKINE SIGNALS TO TCR-ENGINEERED T CELLS” (Baylor College of Medicine, priority 2017, published 2020)

Legend:
c-MPL+ T cells = assay: EP dose-titration, T cell expansion on OKT3/CD28-coated plates; type: cell-based, human
Procedure: Similar results were obtained with the TPO small molecule agonist EP. A dose-titration experiment was used to determine the optimal concentration of EP to support c-MPL+ T cell expansion (FIG. 2C). EP was previously shown to inhibit leukemia cell proliferation at higher concentrations (1-10 μg/ml) by reduction of intracellular iron, a c-MPL independent effect (Roth et al., 2012). NT or c-MPL+ T cells were re-activated on OKT3/CD28-coated plates in the presence of different EP concentrations and expansion of viable T cells was determined after 7 days. […] Thus, the effective EP concentration for c-MPL+ T cells was about 1 log lower than in previous reports assessing effects of EP on megakaryocytic progenitor cells or leukemia cells *Roth et al., 2012; Will et al., 2009). To assess c-MPL ligand-dependent signaling in TCR+c-MPL+ T cells, cells were left untreated (noCK) or treated with TPO50 or EP for 1 (left) or 24 hours (right). […] Next, it was evaluated whether rhTPO enhanced the anti-tumor function of TCR+c-MPL+ T cells using two different HLA-A*0201+survivin+hematologic malignancies as targets (U266 multiple myeloma, BV173 leukemia) (FIGS. 2E-2F). […] Again, addition of IL2 led to significant but antigen-independent enhancement of T cell expansion.

[1] = test system: immune synapses between TCR+c-MPL+ T cells and BV173 leukemia cells; assay: Immunological synapse imaging (confocal microscopy); type: cell-based, human; conditions: mean±SD
Procedure: T cells isolated from sequential killing co-cultures and fresh BV173 target cells were mixed at E:T 1:2, incubated for 10 minutes, fixed, permeabilized, stained with the appropriate antibodies, and analyzed on a Leica TCS SP8 laser scanning microscope. T cells were co-cultured with BV173 cells at an E:T ratio of 1:5 in CTL media with no cytokines, rhTPO (50 ng/mL) or EP (0.1 μg/mL). After one killing (no cytokine condition) or three sequential killings (rhTPO and EP conditions), cells were collected and dead cells removed (Dead Cell Removal Kit, Miltenyi) (FIG. 4A). For confocal microscopy, T cells and fresh BV173 target cells were mixed at E:T ratio of 1:2, incubated for ten minutes in a tube and ten minutes on silane-coated glass slides (Electron Microscopy Sciences) at 37° C. Cells were then permeabilized and fixed with Perm/Fix solution (BD) for 15 minutes at room temperature and stained with anti-Pericentrin (rabbit, Abcam) and anti-Perforin Alexa-488 (mouse, BD Biosciences) primary antibodies. Phalloidin 568 (Life Technologies) was used to detect F-actin. Cells were imaged as Z stacks of 0.2 μm thickness to cover their entire volume on a Leica TCS SP8 laser scanning microscope using a 100× objective. Images were acquired with the LASAF software (Leica) and analyzed with Imaris software (Imaris) and Fiji.

[2] = after three tumor cell challenges
[3] = baseline after T cell expansion

CC1=NN(c2ccc(C)c(C)c2)C(=O)/C1=N\Nc1cccc(-c2cccc(C(=O)O)c2)c1O [EP, eltrombopag, reference compound]
effect of EP treatment at 3 μg/ml on T cells (c-MPL+ T cells; 3 μg/ml): uniformly lethal to T cells
effect of EP levels higher than 0.1 μg/ml on T cells (c-MPL+ T cells; 7 days): toxic to the T cells
EP concentration retained to support c-MPL+ T cell expansion (c-MPL+ T cells; 7 days, OKT3/CD28-coated plates): 0.1 µg/mL
MTOC to synapse distance, co-culture [1, 2]: 1.09±1.16 μm
perforin distance to the synapse (perforin convergence), co-culture [1, 2]: 4.25±1.28 μm
actin accumulation at the synapse, co-culture ([1]; after three tumor cell challenges, rhTPO 50 ng/mL or EP 0.1 μg/mL): 53.29±12.47%
MTOC to synapse distance, baseline [1, 3]: 2.42±2.14 μm
actin accumulation at the synapse, baseline [1, 3]: 40.95±14.82%
perforin distance to the synapse (perforin convergence), baseline [1, 3]: 4.26±2.04 μm
